≈ marks a conversion by molar mass, not a printed value. Calls of active or inactive are those of the source. The rule behind the calls is not given here.
What was measured:
Enterococcus faecalis = experiment: Antibacterial activity against Enterococcus faecalis MTCC 3382 after 24 hr by disk diffusion method; assay type: functional; details: for MIC: Enterococcus faecalis, MTCC 3382, 24 h
Aspergillus niger [1] = experiment: Induction of Aspergillus niger DNA cleavage at 50 ug after 2 hr by agarose gel electrophoresis
Escherichia coli [2] = experiment: Induction of Escherichia coli MTCC 1089 DNA cleavage at 50 ug after 2 hr by agarose gel electrophoresis
Staphylococcus aureus [3] = experiment: Induction of Staphylococcus aureus MTCC 3160 DNA cleavage at 50 ug after 2 hr by agarose gel electrophoresis
Fusarium oxysporum = experiment: Antifungal activity against Fusarium oxysporum after 3 to 4 days by serial dilution method; assay type: functional; details: for MIC: Fusarium oxysporum
Mucor fuscus = experiment: Antifungal activity against Mucor fuscus after 3 to 4 days by serial dilution method; assay type: functional; details: for MIC: Mucor fuscus
Penicillium chrysogenum = experiment: Antifungal activity against Penicillium chrysogenum after 3 to 4 days by serial dilution method; assay type: functional; details: for MIC: Penicillium chrysogenum
Aspergillus niger [4] = experiment: Antifungal activity against Aspergillus niger after 3 to 4 days by serial dilution method; assay type: functional; details: for MIC: Aspergillus niger
Candida albicans = experiment: Antifungal activity against Candida albicans after 3 to 4 days by serial dilution method; assay type: functional; details: for MIC: Candida albicans
Aspergillus fumigatus = experiment: Antifungal activity against Aspergillus fumigatus after 3 to 4 days by serial dilution method; assay type: functional; details: for MIC: Aspergillus fumigatus
Escherichia coli [5] = experiment: Antibacterial activity against Escherichia coli MTCC 1089 after 24 hr by disk diffusion method; assay type: functional; details: for MIC: Escherichia coli, MTCC 1089, 24 h
Klebsiella pneumoniae = experiment: Antibacterial activity against Klebsiella pneumoniae MTCC 3384 after 24 hr by disk diffusion method; assay type: functional; details: for MIC: Klebsiella pneumoniae, MTCC 3384, 24 h
Pseudomonas aeruginosa = experiment: Antibacterial activity against Pseudomonas aeruginosa MTCC 1034 after 24 hr by disk diffusion method; assay type: functional; details: for MIC: Pseudomonas aeruginosa, MTCC 1034, 24 h
Bacillus subtilis = experiment: Antibacterial activity against Bacillus subtilis MTCC 297 after 24 hr by disk diffusion method; assay type: functional; details: for MIC: Bacillus subtilis, MTCC 297, 24 h
Staphylococcus aureus [6] = experiment: Antibacterial activity against Staphylococcus aureus MTCC 3160 after 24 hr by disk diffusion method; assay type: functional; details: for MIC: Staphylococcus aureus, MTCC 3160, 24 h

Row | Compound | inhibition zone (IZ) (Enterococcus faecalis) [mm] | MIC (Enterococcus faecalis) [µg/mL] | MIC (Fusarium oxysporum) [µg/mL] | inhibition zone (IZ) (Mucor fuscus) [mm] | MIC (Mucor fuscus) [µg/mL] | inhibition zone (IZ) (Penicillium chrysogenum) [mm] | MIC (Penicillium chrysogenum) [µg/mL] | inhibition zone (IZ) (Aspergillus niger [4]) [mm] | MIC (Aspergillus niger [4]) [µg/mL] | inhibition zone (IZ) (Candida albicans) [mm] | MIC (Candida albicans) [µg/mL] | inhibition zone (IZ) (Aspergillus fumigatus) [mm] | MIC (Aspergillus fumigatus) [µg/mL] | MIC (Escherichia coli [5]) [µg/mL] | inhibition zone (IZ) (Klebsiella pneumoniae) [mm] | MIC (Klebsiella pneumoniae) [µg/mL] | inhibition zone (IZ) (Pseudomonas aeruginosa) [mm] | inhibition zone (IZ) (Bacillus subtilis) [mm] | MIC (Bacillus subtilis) [µg/mL] | inhibition zone (IZ) (Staphylococcus aureus [6]) [mm] | further results
1 | CC(=O)Nc1cccc(OCc2cc(=O)oc3cc(C)ccc23)c1 | 14 | 12.5 (≈ 38.7 µM) | 50 (≈ 155 µM) | 16 | 12.5 (≈ 38.7 µM) | 18 | 12.5 (≈ 38.7 µM) | 19 | 6.25 (≈ 19.3 µM) | 9 | 25 (≈ 77.3 µM) | 16 | 12.5 (≈ 38.7 µM) | 25 (≈ 77.3 µM) | 14 | 12.5 (≈ 38.7 µM) | 16 | 15 | 12.5 (≈ 38.7 µM) | 14 | Activity (Aspergillus niger [1]): inactive; Activity (Escherichia coli [2]): inactive; Activity (Staphylococcus aureus [3]): inactive; inhibition zone (IZ) (Fusarium oxysporum): 9 mm; inhibition zone (IZ) (Escherichia coli [5]): 10 mm; MIC (Pseudomonas aeruginosa): 12.5 µg/mL (≈ 38.7 µM); MIC (Staphylococcus aureus [6]): 12.5 µg/mL (≈ 38.7 µM)
2 | CCN(CC)c1cccc(OCc2cc(=O)oc3c2ccc2ccccc23)c1 | 14 | 12.5 (≈ 33.5 µM) | 25 (≈ 66.9 µM) | 13 | 25 (≈ 66.9 µM) | 17 | 12.5 (≈ 33.5 µM) | 17 | 12.5 (≈ 33.5 µM) | 14 | 12.5 (≈ 33.5 µM) | 15 | 12.5 (≈ 33.5 µM) | 25 (≈ 66.9 µM) | 16 | 12.5 (≈ 33.5 µM) | 19 | 11 | 25 (≈ 66.9 µM) | 14 | Activity (Aspergillus niger [1]): inactive; Activity (Escherichia coli [2]): inactive; Activity (Staphylococcus aureus [3]): inactive; inhibition zone (IZ) (Fusarium oxysporum): 13 mm; inhibition zone (IZ) (Escherichia coli [5]): 13 mm; MIC (Pseudomonas aeruginosa): 6.25 µg/mL (≈ 16.7 µM); MIC (Staphylococcus aureus [6]): 12.5 µg/mL (≈ 33.5 µM)
3 | CCN(CC)c1cccc(OCc2cc(=O)oc3cc(C)ccc23)c1 | 15 | 6.25 (≈ 18.5 µM) | 50 (≈ 148 µM) | 16 | 12.5 (≈ 37 µM) | 18 | 12.5 (≈ 37 µM) | 18 | 12.5 (≈ 37 µM) | 8 | 25 (≈ 74.1 µM) | 15 | 12.5 (≈ 37 µM) | 50 (≈ 148 µM) | 14 | 12.5 (≈ 37 µM) | 16 | 13 | 12.5 (≈ 37 µM) | 16 | Activity (Aspergillus niger [1]): inactive; Activity (Escherichia coli [2]): inactive; Activity (Staphylococcus aureus [3]): inactive; inhibition zone (IZ) (Fusarium oxysporum): 7 mm; inhibition zone (IZ) (Escherichia coli [5]): 9 mm; MIC (Pseudomonas aeruginosa): 12.5 µg/mL (≈ 37 µM); MIC (Staphylococcus aureus [6]): 12.5 µg/mL (≈ 37 µM)
4 | O=C(O)c1cn(C2CC2)c2cc(N3CCNCC3)c(F)cc2c1=O [CIPROFLOXACIN] | 23 | 6.25 (≈ 18.9 µM) | – | – | – | – | – | – | – | – | – | – | – | 12.5 (≈ 37.7 µM) | 21 | 6.25 (≈ 18.9 µM) | 25 | 20 | 6.25 (≈ 18.9 µM) | 21 | inhibition zone (IZ) (Escherichia coli [5]): 18 mm
5 | O=c1cc(COc2cccc(O)c2)c2ccc3ccccc3c2o1 | 13 | 25 (≈ 78.5 µM) | 25 (≈ 78.5 µM) | 13 | 25 (≈ 78.5 µM) | 16 | 25 (≈ 78.5 µM) | 17 | 12.5 (≈ 39.3 µM) | 13 | 12.5 (≈ 39.3 µM) | 15 | 12.5 (≈ 39.3 µM) | 25 (≈ 78.5 µM) | 14 | 12.5 (≈ 39.3 µM) | 19 | 12 | 25 (≈ 78.5 µM) | 10 | Activity (Aspergillus niger [1]): inactive; Activity (Escherichia coli [2]): inactive; Activity (Staphylococcus aureus [3]): inactive; inhibition zone (IZ) (Fusarium oxysporum): 12 mm; inhibition zone (IZ) (Escherichia coli [5]): 13 mm; MIC (Pseudomonas aeruginosa): 6.25 µg/mL (≈ 19.6 µM); MIC (Staphylococcus aureus [6]): 25 µg/mL (≈ 78.5 µM)
6 | O=c1cc(COc2cccc(O)c2)c2c(ccc3ccccc32)o1 | 14 | 12.5 (≈ 39.3 µM) | 25 (≈ 78.5 µM) | 13 | 25 (≈ 78.5 µM) | 16 | 25 (≈ 78.5 µM) | 17 | 12.5 (≈ 39.3 µM) | 14 | 12.5 (≈ 39.3 µM) | 15 | 12.5 (≈ 39.3 µM) | 25 (≈ 78.5 µM) | 15 | 12.5 (≈ 39.3 µM) | 18 | 12 | 25 (≈ 78.5 µM) | 11 | Activity (Aspergillus niger [1]): inactive; Activity (Escherichia coli [2]): inactive; Activity (Staphylococcus aureus [3]): inactive; inhibition zone (IZ) (Fusarium oxysporum): 12 mm; inhibition zone (IZ) (Escherichia coli [5]): 12 mm; MIC (Pseudomonas aeruginosa): 12.5 µg/mL (≈ 39.3 µM); MIC (Staphylococcus aureus [6]): 25 µg/mL (≈ 78.5 µM)
7 | CC(=O)Nc1cccc(OCc2cc(=O)oc3ccc(Br)cc23)c1 | 18 | 6.25 (≈ 16.1 µM) | 25 (≈ 64.4 µM) | 19 | 6.25 (≈ 16.1 µM) | 20 | 6.25 (≈ 16.1 µM) | 20 | 6.25 (≈ 16.1 µM) | 16 | 12.5 (≈ 32.2 µM) | 20 | 6.25 (≈ 16.1 µM) | 12.5 (≈ 32.2 µM) | 18 | 6.25 (≈ 16.1 µM) | 22 | 17 | 6.25 (≈ 16.1 µM) | 17 | Activity (Aspergillus niger [1]): Active; Activity (Escherichia coli [2]): Active; Activity (Staphylococcus aureus [3]): Active; inhibition zone (IZ) (Fusarium oxysporum): 13 mm; inhibition zone (IZ) (Escherichia coli [5]): 14 mm; MIC (Pseudomonas aeruginosa): 6.25 µg/mL (≈ 16.1 µM); MIC (Staphylococcus aureus [6]): 6.25 µg/mL (≈ 16.1 µM)
8 | Cc1ccc2oc(=O)cc(COc3cccc(O)c3)c2c1 | 15 | 12.5 (≈ 44.3 µM) | 50 (≈ 177 µM) | 14 | 25 (≈ 88.6 µM) | 18 | 12.5 (≈ 44.3 µM) | 19 | 6.25 (≈ 22.1 µM) | 10 | 25 (≈ 88.6 µM) | 16 | 12.5 (≈ 44.3 µM) | 50 (≈ 177 µM) | 13 | 12.5 (≈ 44.3 µM) | 14 | 15 | 12.5 (≈ 44.3 µM) | 13 | Activity (Aspergillus niger [1]): inactive; Activity (Escherichia coli [2]): inactive; Activity (Staphylococcus aureus [3]): inactive; inhibition zone (IZ) (Fusarium oxysporum): 8 mm; inhibition zone (IZ) (Escherichia coli [5]): 8 mm; MIC (Pseudomonas aeruginosa): 25 µg/mL (≈ 88.6 µM); MIC (Staphylococcus aureus [6]): 12.5 µg/mL (≈ 44.3 µM)
9 | O=c1cc(COc2cccc(O)c2)c2cc(Br)ccc2o1 | 18 | 6.25 (≈ 18 µM) | 25 (≈ 72 µM) | 18 | 12.5 (≈ 36 µM) | 19 | 6.25 (≈ 18 µM) | 21 | 6.25 (≈ 18 µM) | 17 | 6.25 (≈ 18 µM) | 18 | 12.5 (≈ 36 µM) | 12.5 (≈ 36 µM) | 19 | 6.25 (≈ 18 µM) | 23 | 17 | 6.25 (≈ 18 µM) | 19 | Activity (Aspergillus niger [1]): Active; Activity (Escherichia coli [2]): Active; Activity (Staphylococcus aureus [3]): Active; inhibition zone (IZ) (Fusarium oxysporum): 13 mm; inhibition zone (IZ) (Escherichia coli [5]): 15 mm; MIC (Pseudomonas aeruginosa): 6.25 µg/mL (≈ 18 µM); MIC (Staphylococcus aureus [6]): 6.25 µg/mL (≈ 18 µM)
10 | Cc1ccc2c(COc3cccc(OCc4cc(=O)oc5cc(C)ccc45)c3)cc(=O)oc2c1 | 16 | 12.5 (≈ 27.5 µM) | > 100 | 15 | 25 (≈ 55 µM) | 15 | 25 (≈ 55 µM) | 16 | 12.5 (≈ 27.5 µM) | 8 | 25 (≈ 55 µM) | 17 | 12.5 (≈ 27.5 µM) | > 100 | 13 | 12.5 (≈ 27.5 µM) | 14 | 14 | 12.5 (≈ 27.5 µM) | 12 | Activity (Aspergillus niger [1]): inactive; Activity (Escherichia coli [2]): inactive; Activity (Staphylococcus aureus [3]): inactive; MIC (Pseudomonas aeruginosa): 25 µg/mL (≈ 55 µM); MIC (Staphylococcus aureus [6]): 25 µg/mL (≈ 55 µM)
11 | OC(Cn1cncn1)(Cn1cncn1)c1ccc(F)cc1F [FLUCONAZOLE] | – | – | 12.5 (≈ 40.8 µM) | 22 | 6.25 (≈ 20.4 µM) | 23 | 6.25 (≈ 20.4 µM) | 24 | 6.25 (≈ 20.4 µM) | 20 | 6.25 (≈ 20.4 µM) | 22 | 6.25 (≈ 20.4 µM) | – | – | – | – | – | – | – | inhibition zone (IZ) (Fusarium oxysporum): 17 mm
